Patent US20150105252A1, “SUBSTITUTED PYRAZOLES AS HERBICIDES” (E I DU PONT DE NEMOURS AND COMPANY, priority 2013, published 2015)

What was measured:
foxtail, green = test: Test C preemergence; type: in vivo, Setaria viridis; settings: for Plant response rating (scale of 0 to 100), Foxtail, Green: Preemergence, 250 g ai/ha; for Foxtail, Green plant response rating / Plant response rating, Foxtail, Green: preemergence; for Plant response rating, Foxtail, Green: 62 g ai/ha, scale 0 to 100, 0 = no effect, 100 = complete control
Text: (§1) Seeds of plant species selected from blackgrass (Alopecurus myosuroides), ryegrass, Italian (Italian ryegrass, Lolium multiflorum), wheat (winter wheat, Triticum aestivum), galium (catchweed bedstraw, Galium aparine), corn (Zea mays), crabgrass, large (large crabgrass, Digitaria sanguinalis), foxtail, giant (giant foxtail, Setaria faberii), johnsongrass (Sorghum halepense), lambsquarters (Chenopodium album), morningglory (Ipomoea coccinea), nutsedge, yellow (yellow nutsedge, Cyperus esculentus), pigweed (redroot pigweed, Amaranthus retroflexus), ragweed (common ragweed, Ambrosia elation), soybean (Glycine max), barnyardgrass (Echinochloa crus-galli), oilseed rape (Brassica napus), waterhemp (common waterhemp, Amaranthus rudis), oat, wild (wild oat, Avena fatua), kochia (Kochia scoparia), Surinam grass (Brachiaria decumbens), foxtail, green (green foxtail, Setaria viridis), goosegrass (Eleusine indica), bromegrass, downy (downy bromegrass, Bromus tectorum), nightshade (eastern black nightshade, Solanum ptycanthum), cocklebur (common cocklebur, Xanthium strumarium), cupgrass, woolly (woolly cupgrass, Eriochloa villosa), bermudagrass (Cynodon dactylon), sunflower, (common oilseed sunflower, Helianthus annuus), Russian thistle (Salsola kali), and velvetleaf (Abutilon theophrasti) were planted into a blend of loam soil and sand and treated preemergence with test chemicals formulated in a non-phytotoxic solvent mixture which included a surfactant.
(§2) At the same time, plants selected from these crop and weed species and also chickweed (common chickweed, Stellaria media), canarygrass (littleseed canarygrass, Phalaris minor), and deadnettle (henbit deadnettle, Lamium amplexicaule), were planted in pots containing Redi-Earth® planting medium (Scotts Company, 14111 Scottslawn Road, Marysville, Ohio 43041) comprising spaghnum peat moss, vermiculite, wetting agent and starter nutrients and treated with postemergence applications of test chemicals formulated in the same manner. Plants ranged in height from 2 to 18 cm (1- to 4-leaf stage) for postemergence treatments. Treated plants and controls were maintained in a greenhouse for 13 to 15 days, after which time all species were compared to controls and visually evaluated. Plant response ratings, summarized in Table C, are based on a scale of 0 to 100 where 0 is no effect and 100 is complete control. A dash (-) response means no test result.

cocklebur = test: Test C preemergence; type: in vivo, Xanthium strumarium; settings: for Plant response rating (scale of 0 to 100), Cocklebur: Preemergence, 250 g ai/ha; for Cocklebur plant response rating / Plant response rating, Cocklebur: preemergence; for Plant response rating, Cocklebur: 62 g ai/ha, scale 0 to 100, 0 = no effect, 100 = complete control
Text: as §1, §2

Russian thistle = test: Test D postemergence; type: in vivo, Salsola kali; settings: scale 0 to 100; for Plant response rating, Russian Thistle: 16 g ai/ha
Text: Seeds of plant species selected from bluegrass (annual bluegrass, Poa annua), blackgrass (Alopecurus myosuroides), canarygrass (littleseed canarygrass, Phalaris minor), chickweed (common chickweed, Stellaria media), galium (catchweed bedstraw, Galium aparine), bromegrass, downy (downy bromegrass, Bromus tectorum), field poppy (Papaver rhoeas), field violet (Viola arvensis), foxtail, green (green foxtail, Setaria viridis), deadnettle (henbit deadnettle, Lamium amplexicaule), ryegrass, Italian (Italian ryegrass, Lolium multiflorum), kochia (Kochia scoparia), lambsquarters (Chenopodium album), oilseed rape (Brassica napus), pigweed (redroot pigweed, Amaranthus retroflexus), chamomile (scentless chamomile, Matricaria inodora), speedwell (bird's-eye speedwell, Veronica persica), barley, spring (spring barley, Hordeum vulgare), wheat, spring (spring wheat, Triticum aestivum), buckwheat, wild (wild buckwheat, Polygonum convolvulus), mustard, wild (wild mustard, Sinapis arvensis), oat, wild (wild oat, Avena fatua), radish, wild (wild radish, Raphanus raphanistrum), windgrass (Apera spica-venti), Russian thistle (Salsola kali), barley, winter (winter barley, Hordeum vulgare), and wheat, winter (winter wheat, Triticum aestivum) were planted into a silt loam soil and treated preemergence with test chemicals formulated in a non-phytotoxic solvent mixture which included a surfactant.
At the same time, these species were planted in pots containing Redi-Earth® planting medium (Scotts Company, 14111 Scottslawn Road, Marysville, Ohio 43041) comprising spaghnum peat moss, vermiculite, wetting agent and starter nutrients and treated with postemergence applications of the test chemicals formulated in the same manner. Plants ranged in height from 2 to 18 cm (1- to 4-leaf stage). Treated plants and controls were maintained in a controlled growth environment for 14 to 21 days after which time all species were compared to controls and visually evaluated. Plant response ratings, summarized in Table D, are based on a scale of 0 to 100 where 0 is no effect and 100 is complete control. A dash (-) response means no test result.

Surinam grass = test: Test C preemergence; type: in vivo, Brachiaria decumbens; settings: for Plant response rating (scale of 0 to 100), Surinam Grass: Preemergence, 250 g ai/ha; for Surinam Grass plant response rating / Plant response rating, Surinam Grass: preemergence; for Plant response rating, Surinam Grass: 62 g ai/ha, scale 0 to 100, 0 = no effect, 100 = complete control
Text: as §1, §2

pigweed, palmer = test: Test F preemergence; type: in vivo, Amaranthus palmeri
Text: (§3) Seeds of plant species selected from corn (Zea mays), soybean (Glycine max), velvetleaf (Abutilon theophrasti), lambsquarters (Chenopodium album), wild poinsettia (Euphorbia heterophylla), pigweed, palmer (palmer pigweed, Amaranthus palmeri), common waterhemp (Amaranthus rudis), surinam grass (Brachiaria decumbens), large crabgrass (Digitaria sanguinalis), crabgrass, Brazil (Brazilian crabgrass, Digitaria horizontalis), fall panicum (Panicum dichotomiflorum), giant foxtail (Setaria faberii), green foxtail (Setaria viridis), goosegrass (Eleusine indica), johnsongrass (Sorghum halepense), common ragweed (Ambrosia elation), barnyardgrass (Echinochloa crus-galli), southern sandbur (Cenchrus echinatus), arrowleaf sida (Sida rhombifolia), Italian ryegrass (Lolium multiflorum), dayflower, VA (Virginia (VA) dayflower, Commelina virginica), field bindweed (Convolvulus arvensis), cocklebur (common cocklebur, Xanthium strumarium), morningglory (Ipomoea coccinea), nightshade (eastern black nightshade, Solanum ptycanthum), kochia (Kochia scoparia), yellow nutsedge (Cyperus esculentus), and hairy beggarticks (Bidens pilosa), were planted into a silt loam soil and treated preemergence with test chemicals formulated in a non-phytotoxic solvent mixture which included a surfactant.
(§4) At the same time, plants from these crop and weed species and also horseweed (Canada horseweed, Conyza canadensis), smartweed (ladysthumb smartweed, Polygonum persicaria), waterhemp_RES1, (ALS & Triazine resistant common waterhemp, Amaranthus rudis), and waterhemp_RES2, (ALS & HPPD resistant common waterhemp, Amaranthus rudis) were treated with postemergence applications of test chemicals formulated in the same manner. Plants ranged in height from 2 to 18 cm for postemergence treatments (1- to 4-leaf stage). Treated plants and controls were maintained in a greenhouse for 14 to 21 days, after which time all species were compared to controls and visually evaluated. Plant response ratings, summarized in Table F, are based on a scale of 0 to 100 where 0 is no effect and 100 is complete control. A dash (-) response means no test result.

velvetleaf = test: Test F preemergence; type: in vivo, Abutilon theophrasti
Text: as §3, §4

[1] = 31 g ai/ha, scale 0 to 100 (0 no effect, 100 complete control), 13 to 15 days
[2] = 125 g ai/ha, scale 0 to 100, 0 is no effect, 100 is complete control
[3] = Preemergence, 31 g ai/ha, scale 0 to 100
[4] = Preemergence, 62 g ai/ha, scale 0 to 100
[5] = Preemergence, 125 g ai/ha, scale 0 to 100
[6] = preemergence, 8 g ai/ha, scale 0 to 100, 100 is complete control
[7] = preemergence, 16 g ai/ha, scale 0 to 100, 100 is complete control
[8] = Preemergence, 250 g ai/ha, scale 0 to 100

| Compound | Plant response rating (scale of 0 to 100), Foxtail, Green (foxtail, green) | Foxtail, Green plant response rating (foxtail, green; [1]) | Plant response rating, Foxtail, Green (foxtail, green; 13 to 15 days) | Foxtail, Green plant response rating (foxtail, green; [2]) | Plant response rating (scale of 0 to 100), Cocklebur (cocklebur) | Cocklebur plant response rating (cocklebur; [1]) | Plant response rating, Cocklebur (cocklebur; 13 to 15 days) | Cocklebur plant response rating (cocklebur; [2]) | Plant response rating, Russian Thistle (Russian thistle; Postemergence) | Russian Thistle plant response rating (Russian thistle; Postemergence, 31 g ai/ha) | Russian Thistle plant response rating (Russian thistle; Postemergence, 125 g ai/ha) | Russian Thistle plant response rating (Russian thistle; postemergence, 62 g ai/ha) | Plant response rating (scale of 0 to 100), Surinam Grass (Surinam grass) | Surinam Grass plant response rating (Surinam grass; [1]) | Plant response rating, Surinam Grass (Surinam grass; 13 to 15 days) | Surinam Grass plant response rating (Surinam grass; [2]) | Plant response rating, Pigweed, Palmer (pigweed, palmer; [4]) | Plant response rating, Pigweed, Palmer (pigweed, palmer; [5]) | Plant response rating, Velvetleaf (velvetleaf; [4]) | Plant response rating, Velvetleaf (velvetleaf; [5]) | other results |
| --- | --- | --- | --- | --- | --- | --- | --- | --- | --- | --- | --- | --- | --- | --- | --- | --- | --- | --- | --- | --- | --- |
| CCc1cc(C(=O)NOC(C)C)nn1Cc1cccc(OC(F)(F)F)c1 [Compound 70] | 98 | 15 | 95 | 95 | 100 | 0 | 0 | 45 | 0 | 80 | 85 | 80 | 85 | 5 | 25 | 65 | – | – | – | – | Russian Thistle plant response rating (Russian thistle; Postemergence, 250 g ai/ha): 90 |
| CCONC(=O)c1cc(CC)n(Cc2cccc(OC(F)(F)F)c2)n1 [Compound 72] | 98 | 30 | 85 | 90 | 100 | 0 | 0 | 10 | – | – | – | – | 75 | 10 | 15 | 65 | – | – | – | – | – |
| Cc1cc(C(=O)NCC(F)(F)F)nn1Cc1ccnc(C(F)(F)F)c1 [Compound 74] | 95 | 85 | 95 | 95 | 100 | 100 | 100 | 100 | 0 | 0 | 60 | 0 | 100 | 15 | 50 | 85 | – | – | – | – | – |
| CCc1cc(C(=O)NC2CC2)nn1Cc1ccnc(C(F)(F)F)c1 [Compound 76] | – | – | – | – | – | – | – | – | 5 | 5 | 10 | 5 | – | – | – | – | – | – | – | – | Russian Thistle plant response rating (Russian thistle; Postemergence, 250 g ai/ha): 40 |
| CCc1cc(-c2ccc(C(F)(F)F)cc2)nn1Cc1ccnc(C(F)(F)F)c1 [Compound 110] | – | – | – | – | – | – | – | – | – | – | – | – | – | – | – | – | 100 | 100 | 40 | 75 | Plant response rating, Pigweed, Palmer (pigweed, palmer; [3]): 95; Plant response rating, Pigweed, Palmer (pigweed, palmer; [6]): 70; Plant response rating, Pigweed, Palmer (pigweed, palmer; [7]): 90; Plant response rating, Velvetleaf (velvetleaf; [3]): 30; Plant response rating, Velvetleaf (velvetleaf; [6]): 20; Plant response rating, Velvetleaf (velvetleaf; [7]): 35 |
| CCCc1cc(C(=O)NC(C)C)nn1Cc1cc(C(F)(F)F)nn1C [Compound 201] | – | – | – | – | – | – | – | – | – | – | – | – | – | – | – | – | 40 | 65 | 0 | 30 | Plant response rating, Pigweed, Palmer (pigweed, palmer; [8]): 90; Plant response rating, Pigweed, Palmer (pigweed, palmer; [7]): 0; Plant response rating, Velvetleaf (velvetleaf; [8]): 100; Plant response rating, Velvetleaf (velvetleaf; [7]): 0; Plant response rating, Velvetleaf (velvetleaf; preemergence, scale 0 to 100, 100 is complete control): 0 |
| CCc1cc(C(=O)NCC(F)(F)F)nn1Cc1ccnc(Br)c1 [Compound 224] | – | – | – | – | – | – | – | – | – | – | – | – | – | – | – | – | 100 | 100 | 50 | 80 | Plant response rating, Pigweed, Palmer (pigweed, palmer; [8]): 100; Plant response rating, Velvetleaf (velvetleaf; [8]): 95 |
